Measurements: US10300058B2, “Tyrosine kinase inhibitor and uses thereof” (Xuanzhu Pharma Co., Ltd., priority 2014, dated 2019)

Legend:
[1] = target: EGFR (d746-750)-T790M (Homo sapiens (Human), UniProt P00533, DEL746-750/T790M); test: Mobility Shift Assay, in vitro enzyme-inhibiting activity, EGFR (d746-750)-T790M; format: biochemical; details: Table 6
Description: (§1) 1. Preparation of Reagents
(§2) 2. Preparation of a Compound Solution
(§3) (1) To the second well of a 96-well plate, 5 μL 10 mM compound (dissolved in DMSO) was added, and 95 μL 100% DMSO was added to prepare 100 μL 0.5 mM compound.
(§4) (2) To other wells, 60 μL 100% DMSO was added. 20 μL compound from the second well was added to the third well, and 4-fold dilution was further performed to get 10 diluted concentrations.
(§5) (3) To the first well and the twelfth well of the 96-well plate, 100 μL 100% DMSO was separately added, and the two wells were used as control wells.
(§6) (4) 10 μL from each well of the 96-well plate was added to another 96-well plate, and 90 μL 1-fold kinase buffer was added.
(§7) (5) 5 μL from the 96-well plate was added to another 384-well plate, for example, transferred from A1 well of the 96-well plate to A1 and A2 wells of the 384-well plate, and transferred from A2 well of the 96-well plate to A3 and A4 wells of the 384-well plate, and so on.
(§8) To 384-well plate, 10 μL 2.5-fold enzyme solution was added, and incubated at room temperature for 10 min.
(§9) (5) Kinase reaction and stop
(§10) After incubation at 28° C. for a period of time (depending on kinase), 25 μL stop solution was added.
(§11) 4. Data on percent conversion was read by Caliper.
(§12) (1) Data on enzyme activity was obtained by Caliper program;
(§13) (2) Inhibition rate of enzyme activity was calculated from the data on enzyme activity by the following formula: Inhibition rate(%)=(maximal value−the measured value of a test compound)/(maximal value-minimal value)×100,
(§14) wherein, the maximal value represents the measured value of DMSO control; and the minimal value represents the measured value of blank control.
(§15) (3) Calculation of IC50 value by XLFit excel.

[2] = target: EGFR L858R (Homo sapiens (Human), UniProt P00533, L858R); test: Mobility Shift Assay, in vitro enzyme-inhibiting activity, EGFR L858R; format: biochemical; details: Table 6
Description: as §1, §2, §3, §4, §5, §6, §7, §8, §9, §10, §11, §12, §13, §14, §15

[3] = test system: H1975 cell (EGFR-T790M/L858R double mutation); test: In vitro cytologic activity, Celltiter-Glo, H1975 cells; format: cell-based, human; details: Table 10; for IC50: Homo sapiens, NCI-H1975, 72 h, 72 h, Celltiter-Glo, unit inferred; for Selectivity (A431/H1975): ratio of IC50
Description: (§16) 1.1 Preparation of Cell Suspension
(§17) Culture medium was removed from culture bottle;
(§18) PBS was added to wash the cells; • pancreatin was added for digestion, and the cells were collected by centrifugation; • the cells were resuspended in a culture medium containing 10% fetal bovine serum, counted and adjusted to a concentration of 2×10^4/mL or 3×10^4/mL (cell viability must be greater than 90%); • the cell suspension was added to a 96-well plate, at 100 μL for each well, i.e., 2000/well for H1975 cell; 3000/well for A431 cell; and • the cells were cultured at 37° C. in 5% CO2 incubator overnight.
(§19) Dilution of a compound in DMSO (or water for injection) • (1) The compound was 5-fold diluted with DMSO from 10 mM to 2 mM, and then 4-fold diluted from 2 mM, to get 10 concentrations; • High control (HC, control without compound inhibition): 0.5% DMSO; • Low control (LC, control with compound inhibition): 1000 nM.
(§20) i. To each well, 99 μL growth medium containing 10% FBS was added, and then 1 μL diluted compound was added, the total volume of the well was […], and the final concentration of the compound was measured.
(§21) The test plate was left at room temperature, and equilibrated for 30 min. 80 μL culture medium was discarded. 60 μL CTG reagent (Celltiter-Glo kit) was added, and shaked for 2 min in a fast shaker, and was placed at room temperature for 10 min. The values were read by Envision instrument.

[4] = test system: A431 cell (wild-type EGFR gene); test: In vitro cytologic activity, Celltiter-Glo, A431 cells; format: cell-based; details: Homo sapiens, A-431, 72 h, Table 10, unit inferred
Description: as §16, §17, §18, §19, §20, §21

[5] = target: EGFR (d746-750) (Homo sapiens (Human), UniProt P00533, DEL746-750); test: Mobility Shift Assay, in vitro enzyme-inhibiting activity, EGFR (d746-750); format: biochemical; details: Table 6
EGFR (d746-750), sequence (P00533 other isoform, or with tags, fused parts or gaps del 1-668/del 746-750 limits assumed): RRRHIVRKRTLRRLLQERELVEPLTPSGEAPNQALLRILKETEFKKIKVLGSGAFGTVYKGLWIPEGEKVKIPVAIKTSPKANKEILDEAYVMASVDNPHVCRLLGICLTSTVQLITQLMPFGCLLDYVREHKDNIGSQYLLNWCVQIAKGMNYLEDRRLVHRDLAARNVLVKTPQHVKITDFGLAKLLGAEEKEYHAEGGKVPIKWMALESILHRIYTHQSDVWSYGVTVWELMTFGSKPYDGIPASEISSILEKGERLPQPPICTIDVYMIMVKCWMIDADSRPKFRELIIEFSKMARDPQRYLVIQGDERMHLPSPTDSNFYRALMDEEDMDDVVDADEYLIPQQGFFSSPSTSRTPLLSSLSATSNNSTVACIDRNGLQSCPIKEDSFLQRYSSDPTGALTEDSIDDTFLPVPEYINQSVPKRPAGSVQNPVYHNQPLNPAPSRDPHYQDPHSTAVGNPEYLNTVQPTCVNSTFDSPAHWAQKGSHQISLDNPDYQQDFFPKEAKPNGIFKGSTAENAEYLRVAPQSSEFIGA
Description: as §1, §2, §3, §4, §5, §6, §7, §8, §9, §10, §11, §12, §13, §14, §15

[6] = target: EGFR T790M-L858R (Homo sapiens (Human), UniProt P00533, L858R/T790M); test: Mobility Shift Assay, in vitro enzyme-inhibiting activity, EGFR T790M-L858R; format: biochemical; details: Table 6
EGFR T790M-L858R, sequence (P00533 25-1210 T790M/L858R): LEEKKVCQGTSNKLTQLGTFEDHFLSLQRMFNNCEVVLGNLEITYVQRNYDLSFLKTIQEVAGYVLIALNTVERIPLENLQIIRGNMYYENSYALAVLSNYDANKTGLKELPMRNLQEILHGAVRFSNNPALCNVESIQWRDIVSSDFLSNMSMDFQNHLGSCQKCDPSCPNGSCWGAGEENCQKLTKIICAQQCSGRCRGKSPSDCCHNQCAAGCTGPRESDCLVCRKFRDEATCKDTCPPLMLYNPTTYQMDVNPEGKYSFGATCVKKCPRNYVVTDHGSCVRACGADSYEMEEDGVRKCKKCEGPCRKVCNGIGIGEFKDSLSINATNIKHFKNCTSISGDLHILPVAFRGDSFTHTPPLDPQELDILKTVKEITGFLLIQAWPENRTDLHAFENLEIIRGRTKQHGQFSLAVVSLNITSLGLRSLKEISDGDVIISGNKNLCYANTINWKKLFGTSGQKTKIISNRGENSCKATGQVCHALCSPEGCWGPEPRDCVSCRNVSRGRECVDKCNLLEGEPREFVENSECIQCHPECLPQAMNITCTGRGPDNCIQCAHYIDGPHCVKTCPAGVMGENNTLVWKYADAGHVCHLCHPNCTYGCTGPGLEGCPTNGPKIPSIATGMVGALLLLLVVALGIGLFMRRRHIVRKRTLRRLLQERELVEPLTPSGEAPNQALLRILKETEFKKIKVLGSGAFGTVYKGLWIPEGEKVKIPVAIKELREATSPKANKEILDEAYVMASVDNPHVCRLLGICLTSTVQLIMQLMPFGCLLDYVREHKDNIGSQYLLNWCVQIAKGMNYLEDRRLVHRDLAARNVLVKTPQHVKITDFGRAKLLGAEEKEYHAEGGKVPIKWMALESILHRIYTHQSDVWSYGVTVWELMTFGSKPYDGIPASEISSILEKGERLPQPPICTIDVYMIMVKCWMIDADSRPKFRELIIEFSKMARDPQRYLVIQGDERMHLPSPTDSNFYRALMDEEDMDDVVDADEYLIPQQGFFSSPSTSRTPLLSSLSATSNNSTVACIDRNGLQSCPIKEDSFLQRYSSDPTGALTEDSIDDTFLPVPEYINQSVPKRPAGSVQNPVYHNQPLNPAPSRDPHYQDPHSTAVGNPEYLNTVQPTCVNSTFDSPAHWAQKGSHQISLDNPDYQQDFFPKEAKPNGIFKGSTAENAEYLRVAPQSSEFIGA
Description: as §1, §2, §3, §4, §5, §6, §7, §8, §9, §10, §11, §12, §13, §14, §15

[7] = target: EGFR T790M (Homo sapiens (Human), UniProt P00533, T790M); test: Mobility Shift Assay, in vitro enzyme-inhibiting activity, EGFR T790M; format: biochemical; details: for IC50: Km ATP; for Selectivity (WT/T790M): ratio of IC50
EGFR T790M, sequence (P00533 25-1210 T790M): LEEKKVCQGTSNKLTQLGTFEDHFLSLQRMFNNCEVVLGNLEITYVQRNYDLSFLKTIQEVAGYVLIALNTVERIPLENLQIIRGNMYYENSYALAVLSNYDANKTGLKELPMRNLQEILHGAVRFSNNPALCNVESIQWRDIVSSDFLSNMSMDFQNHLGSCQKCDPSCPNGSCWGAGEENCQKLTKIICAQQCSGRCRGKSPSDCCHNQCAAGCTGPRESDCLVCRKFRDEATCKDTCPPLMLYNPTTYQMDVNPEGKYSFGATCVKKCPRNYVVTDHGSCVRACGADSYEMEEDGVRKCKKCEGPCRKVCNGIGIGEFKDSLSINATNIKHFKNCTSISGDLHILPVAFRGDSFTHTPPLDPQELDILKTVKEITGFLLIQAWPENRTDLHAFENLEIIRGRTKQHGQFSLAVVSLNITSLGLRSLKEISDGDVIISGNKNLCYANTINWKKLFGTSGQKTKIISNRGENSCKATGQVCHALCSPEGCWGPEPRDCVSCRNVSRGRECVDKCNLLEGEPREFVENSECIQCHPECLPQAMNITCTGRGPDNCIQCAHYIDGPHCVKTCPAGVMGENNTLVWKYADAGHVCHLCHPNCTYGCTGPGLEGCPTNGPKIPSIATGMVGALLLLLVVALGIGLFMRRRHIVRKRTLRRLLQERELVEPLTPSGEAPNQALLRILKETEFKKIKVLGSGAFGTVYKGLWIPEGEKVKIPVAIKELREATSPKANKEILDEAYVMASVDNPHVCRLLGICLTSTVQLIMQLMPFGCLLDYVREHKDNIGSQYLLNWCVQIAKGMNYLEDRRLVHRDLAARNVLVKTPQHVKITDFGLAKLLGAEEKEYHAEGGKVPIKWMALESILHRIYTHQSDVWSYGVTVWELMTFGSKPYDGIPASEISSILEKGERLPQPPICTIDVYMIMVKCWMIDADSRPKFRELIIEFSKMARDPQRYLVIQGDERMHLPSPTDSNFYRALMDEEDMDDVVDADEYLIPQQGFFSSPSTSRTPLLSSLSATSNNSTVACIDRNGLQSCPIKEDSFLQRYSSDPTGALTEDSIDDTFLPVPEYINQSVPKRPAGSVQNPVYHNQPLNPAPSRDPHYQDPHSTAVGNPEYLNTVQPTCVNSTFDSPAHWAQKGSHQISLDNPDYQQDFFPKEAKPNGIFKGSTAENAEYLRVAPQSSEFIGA
Description: as §1, §2, §3, §4, §5, §6, §7, §8, §9, §10, §11, §12, §13, §14, §15

[8] = target: wild-type EGFR (WT EGFR) (Homo sapiens (Human), UniProt P00533); test: Mobility Shift Assay, in vitro enzyme-inhibiting activity, wild-type EGFR; format: biochemical; details: Km ATP
wild-type EGFR (WT EGFR), sequence (P00533 25-1210): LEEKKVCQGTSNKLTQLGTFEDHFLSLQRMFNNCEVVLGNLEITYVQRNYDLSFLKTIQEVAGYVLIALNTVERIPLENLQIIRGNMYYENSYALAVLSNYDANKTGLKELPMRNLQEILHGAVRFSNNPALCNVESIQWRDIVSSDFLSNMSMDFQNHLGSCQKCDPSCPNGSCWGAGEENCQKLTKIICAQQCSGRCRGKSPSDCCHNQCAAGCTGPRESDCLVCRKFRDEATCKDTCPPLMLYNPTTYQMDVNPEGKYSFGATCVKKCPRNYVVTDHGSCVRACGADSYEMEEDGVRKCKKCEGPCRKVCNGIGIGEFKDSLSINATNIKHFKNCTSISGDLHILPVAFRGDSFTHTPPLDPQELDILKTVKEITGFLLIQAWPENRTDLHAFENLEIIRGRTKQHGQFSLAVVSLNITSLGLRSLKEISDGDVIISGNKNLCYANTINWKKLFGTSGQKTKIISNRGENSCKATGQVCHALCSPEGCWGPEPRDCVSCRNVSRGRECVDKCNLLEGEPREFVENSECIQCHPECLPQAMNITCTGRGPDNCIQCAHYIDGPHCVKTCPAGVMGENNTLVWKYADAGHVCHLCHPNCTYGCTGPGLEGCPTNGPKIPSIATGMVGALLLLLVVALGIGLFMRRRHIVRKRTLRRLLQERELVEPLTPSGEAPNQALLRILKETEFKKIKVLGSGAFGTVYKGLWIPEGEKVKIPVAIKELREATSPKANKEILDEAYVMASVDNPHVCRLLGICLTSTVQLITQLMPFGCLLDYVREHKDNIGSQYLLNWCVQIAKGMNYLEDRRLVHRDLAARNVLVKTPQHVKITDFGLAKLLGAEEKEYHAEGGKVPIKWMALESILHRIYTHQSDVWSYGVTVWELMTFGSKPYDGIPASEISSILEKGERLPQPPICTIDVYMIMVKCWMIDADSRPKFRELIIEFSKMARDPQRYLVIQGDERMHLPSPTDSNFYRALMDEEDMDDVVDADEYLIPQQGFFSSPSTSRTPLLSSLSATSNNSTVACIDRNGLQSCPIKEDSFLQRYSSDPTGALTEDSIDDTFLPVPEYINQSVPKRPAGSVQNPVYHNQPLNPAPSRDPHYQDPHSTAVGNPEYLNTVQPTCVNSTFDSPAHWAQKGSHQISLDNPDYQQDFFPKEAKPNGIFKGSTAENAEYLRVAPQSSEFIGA
Description: as §1, §2, §3, §4, §5, §6, §7, §8, §9, §10, §11, §12, §13, §14, §15

EGFR (d746-750)-T790M, sequence (P00533 other isoform, or with tags, fused parts or gaps T790M/del 1-668/del 746-750 limits assumed): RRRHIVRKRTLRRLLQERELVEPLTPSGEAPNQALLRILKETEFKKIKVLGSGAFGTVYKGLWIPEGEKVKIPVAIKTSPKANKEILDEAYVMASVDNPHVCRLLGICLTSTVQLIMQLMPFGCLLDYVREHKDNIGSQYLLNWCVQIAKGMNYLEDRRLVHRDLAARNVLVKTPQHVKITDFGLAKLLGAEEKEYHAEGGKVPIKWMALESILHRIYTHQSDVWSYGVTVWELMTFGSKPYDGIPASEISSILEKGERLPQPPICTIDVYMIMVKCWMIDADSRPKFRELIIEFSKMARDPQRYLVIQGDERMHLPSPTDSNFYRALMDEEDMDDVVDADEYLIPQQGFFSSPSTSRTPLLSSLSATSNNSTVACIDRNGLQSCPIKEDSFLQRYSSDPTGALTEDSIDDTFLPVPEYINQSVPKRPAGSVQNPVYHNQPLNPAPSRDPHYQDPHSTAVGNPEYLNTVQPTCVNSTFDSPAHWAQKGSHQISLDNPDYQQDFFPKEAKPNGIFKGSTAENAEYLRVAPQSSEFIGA

Row | IC50 ([1]; Km ATP, read-out: IC50 EGFR (d746-750)-T790M) [nM] | Selectivity WT/(d746-750)-T790M ([1]; ratio of IC50) | IC50 ([2]; Km ATP) [nM] | Selectivity WT/L858R ([2]; ratio of IC50) | IC50 [3] [nM] | IC50 [4] [nM] | IC50 ([5]; Km ATP) [nM] | Selectivity WT/d746-750 ([5]; ratio of IC50) | IC50 ([6]; Km ATP) [nM] | Selectivity WT/T790M-L858R ([6]; ratio of IC50) | IC50 ([7]; Table 6) [nM] | Selectivity (WT/T790M) ([7]; Table 6) | IC50 ([8]; Table 6) [nM] | IC50 ([7]; Table 4, unit inferred) [nM] | Selectivity (WT/T790M) ([7]; Table 4) | IC50 ([8]; Table 4, unit inferred) [nM] | SMILES | Selectivity (A431/H1975) [3]
1 | 3.5 | 67.4 | 35 | 6.7 | 211 | 2500 | 28 | 8.4 | 3.3 | 71.5 | 3.5 | 67.4 | 236 | – | – | – | C=CC(=O)Nc1cccc(Nc2nc(Nc3ccc(C4CCN(C)C(=O)C4)cc3OC)ncc2C(F)(F)F)c1 (centres unmarked) [Compound 21, N-(3-((2-((2-methoxy-4-(1-methyl-2-oxopiperidin-4-yl)phenyl)amino)-5-(trifluoromethyl)pyrimidin-4-yl)amino)phenyl)acrylamide] | 11.9
2 | – | – | – | – | 22.5 | 272 | – | – | – | – | – | – | – | 0.32 | 34.4 | 11 | C=CC(=O)Nc1cccc(Nc2nc(Nc3ccc(C4CCN(C)CC4)cc3OC)ncc2C(F)(F)F)c1 [Compound 29, N-(3-((2-((2-methoxy-4-(1-methylpiperidin-4-yl)phenyl)amino)-5-(trifluoromethyl)pyrimidin-4-yl)amino)phenyl)acrylamide] | 12.1
3 | – | – | – | – | 28.5 | 247 | – | – | – | – | – | – | – | 1.4 | 58.6 | 82 | C=CC(=O)Nc1cccc(Nc2nc(Nc3ccc(C4CCN(C5COC5)CC4)cc3OC)ncc2C(F)(F)F)c1 [Compound 41, N-(3-((2-((2-methoxy-4-(1-(oxetan-3-yl)piperidin-4-yl)phenyl)amino)-5-(trifluoromethyl)pyrimidin-4-yl)amino)phenyl)acrylamide] | 8.6
